From patent US10543212B2, “Substituted amines for treating cardiac diseases” (Cardurion Pharmaceuticals, LLC, priority 2017, dated 2020)

Biological target: T1, Full-length, GST-tagged, human CaMKIIδ (Homo sapiens, UniProt Q13557)
T1 construct: Full-Length, Glutathione-S-Transferase(GST)-Tagged, Human CaMKIIδ was purchased from Carna Biosciences; purchased Carna Biosciences 02-111
Test: CaMKIIδ binding assay (TR-FRET with BODIPY-labeled probe ligand)
Conditions: CaMKIIδ binding assay, results of Table 2
Summary of the method: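 Compounds were tested as 4-fold, eight-point series for 1 hr at room temperature, and IC50 was obtained by logistic fitting against a 3 μM parent-compound control. Signal came from displacement of a 300 nM BODIPY ligand from 0.5 nM GST-CaMKIIδ, detected via Tb-anti-GST in calmodulin/Ca2+ (pH 7.6).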

T1 sequence (Q13557 1-478 isoform Q13557-12): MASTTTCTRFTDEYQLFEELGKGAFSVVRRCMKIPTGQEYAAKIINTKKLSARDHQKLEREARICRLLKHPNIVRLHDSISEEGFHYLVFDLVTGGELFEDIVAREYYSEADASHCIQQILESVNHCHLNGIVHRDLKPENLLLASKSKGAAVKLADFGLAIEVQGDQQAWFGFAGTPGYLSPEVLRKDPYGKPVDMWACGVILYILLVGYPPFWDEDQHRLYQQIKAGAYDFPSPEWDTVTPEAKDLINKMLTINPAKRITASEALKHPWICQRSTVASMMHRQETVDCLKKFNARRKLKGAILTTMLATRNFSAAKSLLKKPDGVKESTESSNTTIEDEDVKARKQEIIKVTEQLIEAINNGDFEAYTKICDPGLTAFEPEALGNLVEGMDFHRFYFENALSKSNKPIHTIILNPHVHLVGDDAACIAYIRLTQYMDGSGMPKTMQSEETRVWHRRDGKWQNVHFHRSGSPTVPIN

First: COc1ccc(C(=O)N2CCN(C)CC2)cc1Nc1ncc(-c2ccc(Cl)c(O[C@@H](C)Cn3cnnn3)c2)cn1 [Example 569, (S)-(3-((5-(3-((1-(1H-tetrazol-1-yl)propan-2-yl)oxy)-4-chlorophenyl)pyrimidin-2-yl)amino)-4-methoxyphenyl) (4-methylpiperazin-1-yl)methanone]
Second: COc1cc2c(cc1Nc1ncc(-c3ccc(C#N)c(O[C@@H](C)Cn4cnnn4)c3)cn1)CCN(C(=O)C(F)(F)F)C2 [Example 458, (S)-2-((1-(1H-tetrazol-1-yl)propan-2-yl)oxy)-4-(2-((7-methoxy-2-(2,2,2-trifluoroacetyl)-1,2,3,4-tetrahydroisoquinolin-6-yl)amino)pyrimidin-5-yl)benzonitrile]
The IC50 of the first is lower: less than 10 nM for the first, 10 to 100 nM for the second. The first is the more potent here.

First: C[C@@H](Cn1cnnn1)Oc1cc(-c2cnc(Nc3cn(C4CCN(Cc5cccnc5)CC4)nc3C(F)(F)F)nc2)ccc1Cl [Example 563, (S)-5-(3-((1-(1H-tetrazol-1-yl)propan-2-yl)oxy)-4-chlorophenyl)-N-(1-(1-(pyridin-3-ylmethyl)piperidin-4-yl)-3-(trifluoromethyl)-1H-pyrazol-4-yl)pyrimidin-2-amine]
Second: C[C@@H](Cn1cnnn1)Oc1cc(-c2cnc(Nc3cn(C4CCN(Cc5ccccn5)CC4)nc3C(F)(F)F)nc2)ccc1Cl [Example 564, (S)-5-(3-((1-(1H-tetrazol-1-yl)propan-2-yl)oxy)-4-chlorophenyl)-N-(1-(1-(pyridin-2-ylmethyl)piperidin-4-yl)-3-(trifluoromethyl)-1H-pyrazol-4-yl)pyrimidin-2-amine]
The IC50 of the first is higher: 10 to 100 nM for the first, less than 10 nM for the second.

First: Cc1ncc(N2CCC(N3CCOCC3)CC2)cc1Nc1ncc(-c2ccc(Cl)c(O[C@@H](C)Cn3cnnn3)c2)cn1 [Example 462, (S)-5-(3-((1-(1H-tetrazol-1-yl)propan-2-yl)oxy)-4-chlorophenyl)-N-(2-methyl-5-(4-morpholinopiperidin-1-yl)pyridin-3-yl)pyrimidin-2-amine]
Second: Cc1ncc(N2CC(O)C2)cc1Nc1ncc(-c2ccc(Cl)c(O[C@@H](C)Cn3cnnn3)c2)cn1 [Example 523, (S)-1-(5-((5-(3-((1-(1H-tetrazol-1-yl)propan-2-yl)oxy)-4-chlorophenyl)pyrimidin-2-yl)amino)-6-methylpyridin-3-yl)azetidin-3-ol]
The IC50 of the first is lower: less than 10 nM for the first, 10 to 100 nM for the second. The first is the more potent here.

For C[C@@H](Cn1cnnn1)Oc1cc(-c2cnc(Nc3cc4c(cc3Cl)CCN(C3COC3)CC4)nc2)ccc1C#N [Example 539, (S)-2-((1-(1H-tetrazol-1-yl)propan-2-yl)oxy)-4-(2-((8-chloro-3-(oxetan-3-yl)-2,3,4,5-tetrahydro-1H-benzo[d]azepin-7-yl)amino)pyrimidin-5-yl)benzonitrile], the IC50 was less than 10 nM.

Same assay, conditions: CaMKIIδ binding assay; activity class per Table 2

COc1ccc(Cn2cc(Nc3ncc(-c4ccc(Cl)c(O[C@@H](C)Cn5cnnn5)c4)cn3)c(OCC(F)(F)F)n2)cn1 [Example 926, (S)-5-(3-((1-(1H-tetrazol-1-yl)propan-2-yl)oxy)-4-chlorophenyl)-N-(1-((6-methoxypyridin-3-yl)methyl)-3-(2,2,2-trifluoroethoxy)-1H-pyrazol-4-yl)pyrimidin-2-amine] and Cc1nccc(N2CC3(CC(n4cc(Nc5ncc(-c6ccc(Cl)c(O[C@@H](C)Cn7cnnn7)c6)cn5)c(OCC(F)(F)F)n4)C3)C2)n1 [Example 1000, (S)-5-(3-((1-(1H-tetrazol-1-yl)propan-2-yl)oxy)-4-chlorophenyl)-N-(1-(2-(2-methylpyrimidin-4-yl)-2-azaspiro[3.3]heptan-6-yl)-3-(2,2,2-trifluoroethoxy)-1H-pyrazol-4-yl)pyrimidin-2-amine] cannot be ordered by IC50: less than 10 nM for the first, less than 10 nM for the second.

C[C@@H](Cn1cnnn1)Oc1cc(-c2cnc(Nc3cn(CC4(O)CCN(C(N)=O)CC4)nc3C(F)(F)F)nc2)ccc1Cl [Example 888, (S)-4-((4-((5-(3-((1-(1H-tetrazol-1-yl)propan-2-yl)oxy)-4-chlorophenyl)pyrimidin-2-yl)amino)-3-(trifluoromethyl)-1H-pyrazol-1-yl)methyl)-4-hydroxypiperidine-1-carboxamide] and C[C@@H](Cn1cnnn1)Oc1cc(-c2cnc(Nc3cn(C4CC5(C4)CN(C4CCOC4)C5)nc3C(F)(F)F)nc2)ccc1Cl (stereo partly drawn) [Example 930, 5-(3-(((S)-1-(1H-tetrazol-1-yl)propan-2-yl)oxy)-4-chlorophenyl)-N-(1-(2-(tetrahydrofuran-3-yl)-2-azaspiro[3.3]heptan-6-yl)-3-(trifluoromethyl)-1H-pyrazol-4-yl)pyrimidin-2-amine] cannot be ordered by IC50: less than 10 nM for the first, less than 10 nM for the second.

C[C@@H](Cn1cnnn1)Oc1cc(-c2cnc(Nc3cn(C4CC5(C4)CN(C4(C)CCOCC4)C5)nc3OCC(F)(F)F)nc2)ccc1Cl [Example 937, (S)-5-(3-((1-(1H-tetrazol-1-yl)propan-2-yl)oxy)-4-chlorophenyl)-N-(1-(2-(4-methyltetrahydro-2H-pyran-4-yl)-2-azaspiro[3.3]heptan-6-yl)-3-(2,2,2-trifluoroethoxy)-1H-pyrazol-4-yl)pyrimidin-2-amine] and C[C@@H](Cn1cnnn1)Oc1cc(-c2cnc(Nc3cn(C4CC5(C4)CN(C4CCOCC4)C5)nc3OCC(F)(F)F)nc2)ccc1C#N [Example 938, (S)-2-((1-(1H-tetrazol-1-yl)propan-2-yl)oxy)-4-(2-((1-(2-(tetrahydro-2H-pyran-4-yl)-2-azaspiro[3.3]heptan-6-yl)-3-(2,2,2-trifluoroethoxy)-1H-pyrazol-4-yl)amino)pyrimidin-5-yl)benzonitrile] cannot be ordered by IC50: less than 10 nM for the first, less than 10 nM for the second.

Same assay, conditions: Table 2; CaMKIIδ binding assay, activity given as class A/B/C

Compared with C[C@@H](Cn1cnnn1)Oc1cc(-c2cnc(Nc3cn(CC(O)CO)nc3C(F)(F)F)nc2)ccc1Cl (stereo partly drawn) [Example 736, 3-(4-((5-(3-(((S)-1-(1H-tetrazol-1-yl)propan-2-yl)oxy)-4-chlorophenyl)pyrimidin-2-yl)amino)-3-(trifluoromethyl)-1H-pyrazol-1-yl)propane-1,2-diol], COCCn1cc(Nc2ncc(-c3ccc(Cl)c(O[C@@H](C)Cn4cnnn4)c3)cn2)c(C(F)(F)F)n1 [Example 737, (S)-5-(3-((1-(1H-tetrazol-1-yl)propan-2-yl)oxy)-4-chlorophenyl)-N-(1-(2-methoxyethyl)-3-(trifluoromethyl)-1H-pyrazol-4-yl)pyrimidin-2-amine] is higher in IC50: less than 10 nM for the first, 10 to 100 nM for the second. The first is the more potent here.

Compared with C[C@@H](Cn1cnnn1)Oc1cc(-c2cnc(Nc3cn(-c4ccc(=O)[nH]c4)nc3C(F)(F)F)nc2)ccc1Cl [Example 868, (S)-5-(4-((5-(3-((1-(1H-tetrazol-1-yl)propan-2-yl)oxy)-4-chlorophenyl)pyrimidin-2-yl)amino)-3-(trifluoromethyl)-1H-pyrazol-1-yl)pyridin-2(1H)-one], C[C@@H](Cn1cnnn1)Oc1cc(-c2cnc(Nc3cn([C@H]4CC[C@H](N5CC6(COC6)C5)CC4)nc3C(F)(F)F)nc2)ccc1Cl [Example 822, 5-(3-(((S)-1-(1H-tetrazol-1-yl)propan-2-yl)oxy)-4-chlorophenyl)-N-(1-(trans-4-(2-oxa-6-azaspiro[3.3]heptan-6-yl)cyclohexyl)-3-(trifluoromethyl)-1H-pyrazol-4-yl)pyrimidin-2-amine] is lower in IC50: 10 to 100 nM for the first, less than 10 nM for the second.

CCn1ncc(Nc2ncc(-c3ccc(Cl)c(O[C@@H](C)Cn4cnnn4)c3)cn2)c1C(=O)O [Example 875, (S)-4-((5-(3-((1-(1H-tetrazol-1-yl)propan-2-yl)oxy)-4-chlorophenyl)pyrimidin-2-yl)amino)-1-ethyl-1H-pyrazole-5-carboxylic acid] and Cc1ccc(-c2cnc(Nc3cn([C@H]4CC[C@@H](N5CCOCC5)CC4)nc3C(F)(F)F)nc2)cc1O[C@@H](C)Cn1cnnn1 [Example 809, 5-(3-(((S)-1-(1H-tetrazol-1-yl)propan-2-yl)oxy)-4-methylphenyl)-N-(1-(cis-4-morpholinocyclohexyl)-3-(trifluoromethyl)-1H-pyrazol-4-yl)pyrimidin-2-amine] fall in the same range of IC50: 10 to 100 nM for the first, 10 to 100 nM for the second.

Same assay, conditions: Table 2; activity class for CaMKIIδ

C[C@@H](Cn1cnnn1)Oc1cc(-c2cnc(Nc3cn(C4CCOC4)nc3C(F)(F)F)nc2)ccc1Cl (stereo partly drawn) [Example 644, 5-(3-(((S)-1-(1H-tetrazol-1-yl)propan-2-yl)oxy)-4-chlorophenyl)-N-(1-(tetrahydrofuran-3-yl)-3-(trifluoromethyl)-1H-pyrazol-4-yl)pyrimidin-2-amine] and C[C@@H](Cn1cnnn1)Oc1cc(-c2cnc(Nc3cn(C4CN(C5COC5)C4)nc3C(F)(F)F)nc2)ccc1Cl [Example 699, (S)-5-(3-((1-(1H-tetrazol-1-yl)propan-2-yl)oxy)-4-chlorophenyl)-N-(1-(1-(oxetan-3-yl)azetidin-3-yl)-3-(trifluoromethyl)-1H-pyrazol-4-yl)pyrimidin-2-amine] fall in the same range of IC50: 10 to 100 nM for the first, 10 to 100 nM for the second.

CCOc1nn(C2CCN(C3CCOCC3)CC2)cc1Nc1ncc(-c2ccc(Cl)c(O[C@@H](C)Cn3cnnn3)c2)cn1 [Example 587, (S)-5-(3-((1-(1H-tetrazol-1-yl)propan-2-yl)oxy)-4-chlorophenyl)-N-(3-ethoxy-1-(1-(tetrahydro-2H-pyran-4-yl)piperidin-4-yl)-1H-pyrazol-4-yl)pyrimidin-2-amine] and COc1ccc(C(=O)N2CCN(CC3CC3)CC2)cc1Nc1ncc(-c2ccc(Cl)c(O[C@@H](C)Cn3cnnn3)c2)cn1 [Example 681, (S)-(3-((5-(3-((1-(1H-tetrazol-1-yl)propan-2-yl)oxy)-4-chlorophenyl)pyrimidin-2-yl)amino)-4-methoxyphenyl) (4-(cyclopropylmethyl)piperazin-1-yl)methanone] cannot be ordered by IC50: less than 10 nM for the first, less than 10 nM for the second.

C[C@@H](Cn1cnnn1)Oc1cc(-c2cnc(Nc3cc(-c4cccs4)nn3C)nc2)ccc1Cl [Example 729, (S)-5-(3-((1-(1H-tetrazol-1-yl)propan-2-yl)oxy)-4-chlorophenyl)-N-(1-methyl-3-(thiophen-2-yl)-1H-pyrazol-5-yl)pyrimidin-2-amine] was tested, and the IC50 was 10 to 100 nM.
